Patent US20090017103A1, “Antisense oligonucleotides for prevention of metastasis formation of cancer cells” (priority 2003, published 2009)
“And” between values parts separate entries of the source, which are not always exact repeats. Equal entries are not always repeated.

Tests used:
osteopontin = test: Western blot of osteopontin expression after exposure to ASOs; assay type: cell-based, human; conditions: MDA-MB231, lipofectamine, 10 μM
osteonectin = test: Western blot of osteonectin expression after exposure to ASOs; assay type: cell-based, human; conditions: single exposure, lipofectamine, 10 μM
MDA-MB-231^GFP cells [1] = test: In vivo treatment with mini-osmotic pumps (osteolytic bone metastasis model);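 on Mean size of lesion: mean lesion size in relative units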;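 on Size of lesion (per animal): lesion size in relative units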; set-up: species or system nude rats; conditions: for X-ray scan of hind legs: lytic lesions (in words): FIG. 5-7; for T/C × 100: mean lesion size vs NSO control rats; for Mean size of lesion / Size of lesion (per animal): mini-osmotic pumps; for Incidence of metastasis: mini-osmotic pumps s.c., 7 mg/kg daily over four weeks
bone sialoprotein II = test: Western blot of bone sialoprotein II expression after exposure to ASOs; assay type: cell-based, human; conditions: 10 μM
MDA-MB-231^GFP cells [2] = test: In vivo model with pretreated MDA-MB-231^GFP cells (osteolytic bone metastasis); set-up: species or system nude rats; lesion size of the rat(s) that developed lytic metastasis, % of control / lesion sizes with respect to all animals of the group compared to untreated control / lesion size of individual animal compared to the untreated control / T/C % (mean lesion size compared to untreated control): concentration or dose not given beside the values; conditions: for T/C × 100: mean lesion size vs untreated control rats; for Incidence of metastasis: cells pretreated in vitro (10 μM);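 on Mean size of lesion: mean lesion size in relative units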
[3] = system: MDA-MB-231 breast cancer cells; test: Clonogenicity assay (colony formation); assay type: cell-based, human; conditions: 20 μM
Protocol: For determining the response of MDA-MB-231 colony formation to exposure with antisense oligonucleotides and erucylphospho-NNN-trimethylpropanolamine (ErPC3) the following procedure was used. MDA-MB-231 cells were treated for various periods of time (see below), harvested and counted. Cells (5000) were then transferred into semi-solid medium containing 0.8t RPMI-methylcellulose and 30% FBS. Cells were plated onto 3.5 cm Petri-dishes (1 ml/dish) (NUNC, Wiesbaden, Germany) and usual cell culture conditions (37° C., 5% CO2 in humidified air) were applied. Colony formation (clusters of 30 or more cells) was visualized by staining with 3-[4,5-dimethylthiazol-2-yl]-2,5-diphenyltetrazolium-bromide (MTT; Serva, Heidelberg, Germany) and the resulting dark blue colonies were scored by an inverted microscope after 5-7 days. At least three dishes per treatment protocol were used.
Pending on the duration of treatment, 1×10^5-3×10^5 cells were transferred onto 6 well plates (Nunc, Wiesbaden, Germany) and grown for 24 h. For transfection, ASO stock solutions were prepared in medium without FBS. According to the protocol of the manufacturer, the respective ASO stock solution was mixed with lipofectamine to allow ASO-liposome complexes to form. To 200 μl medium containing ASO quantities resulting in 10 μM (Western blot and in vivo model) and in 5, 10, or 20 μM (clonogenicity assay) final ASO-concentrations, an equal volume of medium without FBS was added containing 5, 10, or 20 μl lipofectamine, respectively. In addition to the ASO treatment, a NSO control (20 μM final concentration with 20 μl lipofectamine) and a lipofectamine control (20 μl) were used. […] After 12 h the medium was changed, and cells were further grown for 48-72 h. In the case of a sequential combination treatment this first cycle was repeated with the respective combination partner.
The alkylphosphocholine ErPC3 was synthesized and provided by Prof. H. Eibl (MPI of Biophysical Chemistry, Göttingen, FRG). For treating MDA-MB-231 cells, ErPC3 which was kept as stock solution in ethanol and PBS (10 mM; ratio of diluents 1:1; V:V), was diluted in PBS resulting in final concentrations of 10, 14, and 20 μM. The medium containing ErPC3 was changed after 24 h in all experiments and the cells were further grown for 48-72 h without ErPC3 (for details of sequential exposure see below).
Sequential combination treatment consisted of two or three treatment cycles. The two cycle treatment started either with the ASO and was followed by ErPC3 or was performed with the reverse sequence. The three cycle treatment started either with two cycles of ASO followed by ErPC3 or an initial exposure to ErPC3 was followed by two cycles with an ASO.
Colony counts are presented as mean with corresponding standard deviation. For comparison of incidences between treatment groups the x^2 test was used and for comparison of the lesion sizes the Kruskal-Wallis test was applied. P values≦0.05 were considered significant. Predicted theoretical values of combinations were calculated according to the equation: C=a×b/100, where a and b are colony counts in percent of untreated control obtained in response to single agents. For each concentration applied theoretical values were calculated and compared with the real value of the combination. In addition, isobologram and multiple drug effect analysis was examined by a suitable program (CalcuSyn, Biosoft, Ferguson, USA) to study the nature of the interaction observed. For this purpose, the dose-effect curve for each drug alone was determined based on the experimental observations using the median-effect principle; the combination index (CI) for each combination was then calculated according to the following equation:
CI=(D)1/(Dx)1+(D)2/(Dx)2+(D1)×(D2)/(Dx)1×(Dx)2
where (D)1 and (D)2 are the doses of drug 1 and drug 2 that have x effect when used in combination and (Dx)1 and (Dx)2 are the doses of drug 1 and drug 2 that have the same x effect when used alone. […]

With “5′-GCGAGGGAGTTCTTCTTCTA-3′ (GCGAGGGAGTTCTTCTTCTA; phosphorothioate backbone, further chemistry not given here) [NSO, reference compound]” the “osteopontin expression in relation to untreated control (100%)” value (osteopontin; single exposure) was 99.5%, the “osteopontin expression in relation to untreated control (100%)” value (osteopontin; twofold exposure) was 99% and the “osteonectin expression in relation to untreated control (100%)” value (“osteonectin expression in relation … (100%)” for short) (osteonectin; MDA-MB231) was 94%. For the same substance, the “osteonectin expression in relation … (100%)” value (osteonectin; MDA-MB231^F (growing without FBS)) was 80%, the “osteonectin expression in relation … (100%)” value (osteonectin; MDA-MB435s) was 97% and the “X-ray scan of hind legs: lytic lesions (in words)” value (MDA-MB-231^GFP cells [1]; eight weeks after tumor cell implantation) was “clear increase of lytic lesions in the tibia and fibula”. For the same substance, the “X-ray scan of hind legs: lytic lesions (in words)” value (MDA-MB-231^GFP cells [1]; four weeks after tumor cell implantation, therapy from implantation) was “small lytic lesions in the tibia”, the “X-ray scan of hind legs: lytic lesions (in words)” value (MDA-MB-231^GFP cells [1]; six weeks after tumor cell implantation) was “visible lytic lesions in the tibia and fibula” and the “X-ray scan of hind legs: lytic lesions (in words)” value (MDA-MB-231^GFP cells [1]; ten weeks after tumor cell implantation) was “lytic metastases with clear deterioration are visible in all regions of the right hind leg”. For the same substance, the “T/C × 100” value (MDA-MB-231^GFP cells [1]; week 4) was 100, the “Mean size of lesion” value (MDA-MB-231^GFP cells [1]; week 4) was 33 R.U and the “Size of lesion (per animal)” value (MDA-MB-231^GFP cells [1]; week 4) was 45 R.U. and 8 R.U. and 46 R.U. For the same substance, the Incidence of metastasis (MDA-MB-231^GFP cells [1]; week 4) was 3/3, the “T/C × 100” value (MDA-MB-231^GFP cells [1]; week 6) was 100 and the “Mean size of lesion” value (MDA-MB-231^GFP cells [1]; week 6) was 177 R.U. For the same substance, the “Size of lesion (per animal)” value (MDA-MB-231^GFP cells [1]; week 6) was 307 R.U. and 29 R.U. and 194 R.U, the Incidence of metastasis (MDA-MB-231^GFP cells [1]; week 6) was 3/3 and the “T/C × 100” value (MDA-MB-231^GFP cells [1]; week 8) was 100. The “Mean size of lesion” value (MDA-MB-231^GFP cells [1]; week 8) was 273 R.U, the “Size of lesion (per animal)” value (MDA-MB-231^GFP cells [1]; week 8) was 403 R.U. and 99 R.U. and 318 R.U and the Incidence of metastasis (MDA-MB-231^GFP cells [1]; week 8) was 3/3. The “T/C × 100” value (MDA-MB-231^GFP cells [1]; week 9) was 100, the “Mean size of lesion” value (MDA-MB-231^GFP cells [1]; week 9) was 379 R.U and the “Size of lesion (per animal)” value (MDA-MB-231^GFP cells [1]; week 9) was 453 R.U. and 278 R.U. and 406 R.U. The Incidence of metastasis (MDA-MB-231^GFP cells [1]; week 9) was 3/3, the “T/C × 100” value (MDA-MB-231^GFP cells [1]; week 10) was 100 and the “Mean size of lesion” value (MDA-MB-231^GFP cells [1]; week 10) was 429 R.U. For the same substance, the “Size of lesion (per animal)” value (MDA-MB-231^GFP cells [1]; week 10) was 512 R.U. and 313 R.U. and 461 R.U, the Incidence of metastasis (MDA-MB-231^GFP cells [1]; week 10) was 3/3 and the “T/C × 100” value (MDA-MB-231^GFP cells [1]; week 12) was 100. The “Mean size of lesion” value (MDA-MB-231^GFP cells [1]; week 12) was 434 R.U, the “Size of lesion (per animal)” value (MDA-MB-231^GFP cells [1]; week 12) was 534 R.U. and 316 R.U. and 453 R.U and the Incidence of metastasis (MDA-MB-231^GFP cells [1]; week 12) was 3/3. The “bone sialoprotein II expression in relation to untreated control (100%)” value (from here on “bone sialoprotein II expression … (100%)”) (bone sialoprotein II; MDA-MB231, single exposure, electroporation) was 99%, the “bone sialoprotein II expression … (100%)” value (bone sialoprotein II; MDA-MB231, single exposure, lipofectamine) was 100% and the “bone sialoprotein II expression … (100%)” value (bone sialoprotein II; MDA-MB231, twofold exposure, lipofectamine) was 97%. For the same substance, the “bone sialoprotein II expression … (100%)” value (bone sialoprotein II; MDA-MB231^F (growing without FBS), single exposure, lipofectamine) was 100%, the “bone sialoprotein II expression … (100%)” value (bone sialoprotein II; MDA-MB435s, single exposure, lipofectamine) was 65% and the “T/C × 100” value (MDA-MB-231^GFP cells [2]; 4 weeks) was 78. For the same substance, the “T/C × 100” value (MDA-MB-231^GFP cells [2]; 6 weeks) was 95, the “T/C × 100” value (MDA-MB-231^GFP cells [2]; 8 weeks) was 140 and the “X-ray scan of hind legs: osteolytic lesions (in words)” value (MDA-MB-231^GFP cells [2]; FIG. 3 and FIG. 4, one rat each, cells pre-exposed) was “large osteolytic lesions in the femur, tibia and fibula”. For the same substance, the Incidence of metastasis (MDA-MB-231^GFP cells [2]; observation period 4 weeks) was 2/2, the “Mean size of lesion” value (MDA-MB-231^GFP cells [2]; observation period 4 weeks, pretreated cells) was 173 R.U and the Incidence of metastasis (MDA-MB-231^GFP cells [2]; observation period 6 weeks) was 2/2. The “Mean size of lesion” value (MDA-MB-231^GFP cells [2]; observation period 6 weeks, pretreated cells) was 287 R.U, the Incidence of metastasis (MDA-MB-231^GFP cells [2]; observation period 8 weeks) was 2/2 and the “Mean size of lesion” value (MDA-MB-231^GFP cells [2]; observation period 8 weeks, pretreated cells) was 485 R.U. The “T/C % (mean lesion size compared to untreated control)” value (MDA-MB-231^GFP cells [2]; pretreated cells, after eight weeks) was 140%, the “average lesion sizes compared to untreated control” value (MDA-MB-231^GFP cells [2]; pretreated cells, after four weeks) was “about 78%” and the “lesion sizes with respect to all animals of the group compared to untreated control” value (MDA-MB-231^GFP cells [2]; pretreated cells, over observation period week 4 to week 8) was 104%. For the same substance, the “% Control” value ([3]; Exp. III a) was 94%, the Mean colony no. ([3]; Exp. III a, control 456) was 430 and the “% Control” value ([3]; Experiment II, single treatment) was 96%. The Mean colony no. ([3]; Experiment II, single treatment, control 705) was 676, the “% Control” value ([3]; Experiment III b) was 97% and the Mean colony no. ([3]; Experiment III b, control 517) was 504.
